Experimental data taken from PubChem BioAssay (NCI).
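Cells were grown in 96-well plates and exposed to each compound for 48 hours at five concentrations; endpoints were interpolated linearly between bracketing concentrations, or set to the highest concentration if not reached. GI50 = concentration required for 50% inhibition of growth. TGI: concentration producing complete growth inhibition.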

Tests used:
Assay in all cases: NCI-60 cell line screen, 48 h
SW-620 colon = tested on: SW-620 colon
SF-295 CNS = tested on: SF-295 CNS
HOP-62 NSCLC = tested on: HOP-62 NSCLC
U251 CNS = tested on: U251 CNS
IGROV1 ovarian = tested on: IGROV1 ovarian
HCT-15 colon = tested on: HCT-15 colon
ACHN renal = tested on: ACHN renal
HS 578T breast = tested on: HS 578T breast
MOLT-4 leukemia = tested on: MOLT-4 leukemia
HOP-92 NSCLC = tested on: HOP-92 NSCLC
NCI-H460 lung = tested on: NCI-H460 lung
LOX IMVI melanoma = tested on: LOX IMVI melanoma
PC-3 prostate = tested on: PC-3 prostate
NCI/ADR-RES ovarian = tested on: NCI/ADR-RES ovarian
CAKI-1 renal = tested on: CAKI-1 renal
MDA-MB-435 = tested on: MDA-MB-435
A549 NSCLC = tested on: A549 NSCLC
KM12 colon = tested on: KM12 colon
SK-OV-3 ovarian = tested on: SK-OV-3 ovarian
NCI-H226 lung = tested on: NCI-H226 lung
HT29 colon = tested on: HT29 colon
SK-MEL-28 melanoma = tested on: SK-MEL-28 melanoma
SNB-75 CNS = tested on: SNB-75 CNS
K-562 leukemia = tested on: K-562 leukemia
OVCAR-5 ovarian = tested on: OVCAR-5 ovarian
NCI-H23 lung = tested on: NCI-H23 lung
HL-60(TB) leukemia = tested on: HL-60(TB) leukemia
OVCAR-8 ovarian = tested on: OVCAR-8 ovarian
CCRF-CEM leukemia = tested on: CCRF-CEM leukemia
M14 melanoma = tested on: M14 melanoma
MALME-3M melanoma = tested on: MALME-3M melanoma
COLO 205 colon = tested on: COLO 205 colon
BT-549 breast = tested on: BT-549 breast
SF-268 CNS = tested on: SF-268 CNS
NCI-H522 lung = tested on: NCI-H522 lung
UACC-257 melanoma = tested on: UACC-257 melanoma
SK-MEL-2 melanoma = tested on: SK-MEL-2 melanoma
EKVX NSCLC = tested on: EKVX NSCLC
UACC-62 melanoma = tested on: UACC-62 melanoma
MCF7 breast = tested on: MCF7 breast
SK-MEL-5 melanoma = tested on: SK-MEL-5 melanoma
SR leukemia = tested on: SR leukemia
SN12C renal = tested on: SN12C renal
OVCAR-4 ovarian = tested on: OVCAR-4 ovarian
786-0 renal = tested on: 786-0 renal
TK-10 renal = tested on: TK-10 renal
RPMI-8226 leukemia = tested on: RPMI-8226 leukemia
SNB-19 CNS = tested on: SNB-19 CNS
UO-31 renal = tested on: UO-31 renal
OVCAR-3 ovarian = tested on: OVCAR-3 ovarian
RXF 393 renal = tested on: RXF 393 renal
DU-145 prostate = tested on: DU-145 prostate
A498 renal = tested on: A498 renal

CC1(C)C(O)C[C@]23CCC[C@](C)(C[C@@H](O)C12)C3 (stereo partly drawn)
TGI (SW-620 colon): > 100 µM
TGI (SF-295 CNS): > 100 µM
TGI (HOP-62 NSCLC): > 100 µM
TGI (U251 CNS): > 100 µM
TGI (IGROV1 ovarian): > 100 µM
TGI (HCT-15 colon): > 100 µM
TGI (ACHN renal): > 100 µM
TGI (HS 578T breast): > 100 µM
TGI (MOLT-4 leukemia): > 100 µM
TGI (HOP-92 NSCLC): > 100 µM
TGI (NCI-H460 lung): > 100 µM
TGI (LOX IMVI melanoma): > 100 µM
TGI (PC-3 prostate): > 100 µM
TGI (NCI/ADR-RES ovarian): > 100 µM
TGI (CAKI-1 renal): > 100 µM
TGI (MDA-MB-435): > 100 µM
TGI (A549 NSCLC): > 100 µM
TGI (KM12 colon): > 100 µM
TGI (SK-OV-3 ovarian): > 100 µM
TGI (NCI-H226 lung): > 100 µM
TGI (HT29 colon): > 100 µM
TGI (SK-MEL-28 melanoma): > 100 µM
TGI (SNB-75 CNS): > 100 µM
TGI (K-562 leukemia): > 100 µM
TGI (OVCAR-5 ovarian): > 100 µM
TGI (NCI-H23 lung): > 100 µM
TGI (HL-60(TB) leukemia): > 100 µM
TGI (OVCAR-8 ovarian): > 100 µM
TGI (CCRF-CEM leukemia): > 100 µM
TGI (M14 melanoma): > 100 µM
TGI (MALME-3M melanoma): > 100 µM
TGI (COLO 205 colon): > 100 µM
TGI (BT-549 breast): > 100 µM
TGI (SF-268 CNS): > 100 µM
TGI (NCI-H522 lung): > 100 µM
TGI (UACC-257 melanoma): > 100 µM
TGI (SK-MEL-2 melanoma): > 100 µM
TGI (EKVX NSCLC): > 100 µM
TGI (UACC-62 melanoma): > 100 µM
TGI (MCF7 breast): > 100 µM
TGI (SK-MEL-5 melanoma): > 100 µM
TGI (SR leukemia): > 100 µM
TGI (SN12C renal): > 100 µM
TGI (OVCAR-4 ovarian): > 100 µM
TGI (786-0 renal): > 100 µM
TGI (TK-10 renal): > 100 µM
TGI (RPMI-8226 leukemia): > 100 µM
TGI (SNB-19 CNS): > 100 µM
TGI (UO-31 renal): > 100 µM
TGI (OVCAR-3 ovarian): > 100 µM

Cc1cc(N2CCCCCC2)nc(NC2CCCC(Nc3ccnc4cc(Cl)ccc34)C2)n1 (stereo not drawn)
GI50 (SF-295 CNS): 1.45 µM
TGI (SF-295 CNS): 2.84 µM
GI50 (HOP-62 NSCLC): 1.63 µM
TGI (HOP-62 NSCLC): 3.15 µM
GI50 (U251 CNS): 1.47 µM
TGI (U251 CNS): 2.78 µM
GI50 (ACHN renal): 1.54 µM
TGI (ACHN renal): 2.87 µM
GI50 (HS 578T breast): 1.8 µM
TGI (HS 578T breast): 4.42 µM
GI50 (PC-3 prostate): 1.63 µM
TGI (PC-3 prostate): 3.2 µM
GI50 (MDA-MB-435): 1.63 µM
TGI (MDA-MB-435): 3.08 µM
GI50 (SK-OV-3 ovarian): 1.77 µM
TGI (SK-OV-3 ovarian): 3.23 µM
GI50 (NCI-H226 lung): 2.01 µM
TGI (NCI-H226 lung): 3.76 µM
GI50 (M14 melanoma): 1.19 µM
TGI (M14 melanoma): 2.74 µM
GI50 (BT-549 breast): 1.44 µM
TGI (BT-549 breast): 3.09 µM
GI50 (UACC-257 melanoma): 2.17 µM
TGI (UACC-257 melanoma): 3.7 µM
GI50 (RXF 393 renal): 1.2 µM
TGI (RXF 393 renal): 2.58 µM
GI50 (SK-MEL-5 melanoma): 1.67 µM
TGI (SK-MEL-5 melanoma): 3.04 µM
GI50 (OVCAR-4 ovarian): 1.56 µM
TGI (OVCAR-4 ovarian): 3.25 µM
GI50 (DU-145 prostate): 1.61 µM
TGI (DU-145 prostate): 2.99 µM
GI50 (786-0 renal): 1.27 µM
TGI (786-0 renal): 2.6 µM
GI50 (TK-10 renal): 1.99 µM
TGI (TK-10 renal): 3.54 µM
GI50 (A498 renal): 1.44 µM
TGI (A498 renal): 2.86 µM
GI50 (OVCAR-3 ovarian): 1.76 µM
TGI (OVCAR-3 ovarian): 3.39 µM

N=C(N)c1ccc(-c2ccc(-c3ccc(Cl)cc3)o2)o1
GI50 (SF-295 CNS): 1.83 µM
TGI (SF-295 CNS): 3.32 µM
GI50 (ACHN renal): 1.89 µM
TGI (ACHN renal): 3.51 µM
GI50 (PC-3 prostate): 1.81 µM
TGI (PC-3 prostate): 3.38 µM
GI50 (MDA-MB-435): 1.36 µM
TGI (MDA-MB-435): 2.69 µM
GI50 (SK-OV-3 ovarian): 1.79 µM
TGI (SK-OV-3 ovarian): 3.35 µM
GI50 (NCI-H226 lung): 2.19 µM
TGI (NCI-H226 lung): 6.46 µM
GI50 (SNB-75 CNS): 1.5 µM
TGI (SNB-75 CNS): 2.86 µM
GI50 (BT-549 breast): 5.92 µM
TGI (BT-549 breast): 29.6 µM
GI50 (SK-MEL-5 melanoma): 1.81 µM
TGI (SK-MEL-5 melanoma): 3.21 µM
GI50 (DU-145 prostate): 1.75 µM
TGI (DU-145 prostate): 3.27 µM
GI50 (TK-10 renal): 2.07 µM
TGI (TK-10 renal): 3.57 µM
GI50 (A498 renal): 2.12 µM
TGI (A498 renal): 7.59 µM
GI50 (RPMI-8226 leukemia): 2.12 µM
TGI (RPMI-8226 leukemia): 4.78 µM
GI50 (OVCAR-3 ovarian): 1.83 µM
TGI (OVCAR-3 ovarian): 3.43 µM
